Test results published in patent US5789383A, “Bradykinin antagonists for the prophylaxis or treatment of virus diseases” (Hoechst Aktiengesellschaft, priority 1993, dated 1998).

Tested on: HSV-1
Assay: HOE 140 in combination with acyclovir on HSV-1 skin lesions in hairless mice, Experiment 24/94
Type: in vivo
Details: acyclovir 0.05% orally day 3-7, no HOE 140
Procedure: Investigation of the Action of HOE 140 on Skin Lesions Caused by HSV-1 in Hairless Mice in Combination with Acyclovir
HOE 140 was administered twice daily either topically as a 2% strength cream in a neutral base or subcutaneously with 2 mg/kg per dosage. Acyclovir was administered as a 0.05% strength solution in the drinking water.
Administration of acyclovir day 3-7
Administration of HOE 140 day 3-7 or 0-7

Nc1nc2c(ncn2COCCO)c(=O)[nH]1 [Acyclovir, acyclovir]
Average survival time: 7.3 ± 1.2 days | Survivors/group size (chi^2 test not significant): 2/8 | Animals with zoster formation (group size 8): 7
